From US20140308207A1, “OPEN MICROFLUIDIC DEVICES FOR CHEMOTAXIS, METHODS OF USING SAME, AND APPLICATIONS OF SAME” (priority 2013, published 2014)

Key:
[1] = test system: Dictyostelium discoideum cells; conditions: AX2 cells expressing RBD-GFP, 10 μM cAMP, bulk silica device, cells A-E tracked
Excerpt: (Jowhar, et al., 2010.) D. discoideum cells expressing the Ras Binding Domain of Rafl and fused to the green fluorescent protein (RBD-GFP) were loaded into the open cell ports and exposed to gradients of the chemoattractant cAMP, as shown in FIG. 1E. […] Each 3 mm cell loading port was exposed to three different sources of cAMP (from three 3.0 μm gradient generating ports) under the control of a syringe or Harvard apparatus pump, which serves as a chemoattractant supply device. The syringe pump was used to apply a constant positive pressure to the loaded syringe, thus, preventing fluctuations in the gradient from potential backflow created by negative pressure.
A number of solitary cells that could be followed continuously were tracked using the Cell Tracker program written in LabVIEW™ software (FIG. 3a).
The starting point for each cell is marked with and X. Scale bar is 10 μm. In the table as shown in FIG. 3(b), V, C.I., and P represent velocity (microns/min.), chemotactic index, and persistence, respectively. The same cells were measured at different points along the traveled path to the source and are scored more than once. […]
In order to visualize the migration of cells and record the specifics of chemotactic response; a program was written with LabVIEW™ software. […] The measured centroids are overlayed on the image data so that the tracking of the cell can be visually verified.

[2] = test system: Dictyostelium discoideum cells
Excerpt: Cells were readily loaded by micropipetting into the cell loading area where they were allowed to settle and adhere to the silica cover slip. The channels were primed with buffer by a syringe; we observed that the cells randomly migrated on the surface. Once the cells adhered, cAMP was pumped in to form a chemoattractant gradient. To perform this function, a Harvard apparatus pump was used to create positive pressure on the chemoattractant loaded syringe.
As shown in FIG. 6(a), tracks of seven individual cells (A-G) migrating toward the cAMP source openings (open circles). The starting point for each cell is marked with and X. Scale bar is 20 μm. B.) Quantitation of the migration parameters for cells A-G. In the table as shown in FIG. 6(b), V, C.I., and P represent velocity (microns/min.), chemotactic index, and persistence, respectively. The multiple data points in the table for cells A-G represent different sections of the path as the cell traveled toward the cAMP source.
The cell buffer was used for water immersion.
The device was connected to an inlet and outlet syringe on a Harvard Apparatus syringe pump using microfluidic tubing. […]
In order to visualize the migration of cells and record the specifics of chemotactic response; a program was written with LabVIEW™ software. […] The measured centroids are overlayed on the image data so that the tracking of the cell can be visually verified. […]

myeloid cells = assay: Intravital imaging of a mouse with microfluidic coverslip; type: in vivo; conditions: 50 ng/ml added through coverslip device

What does the source list for `Nc1ncnc2c1ncn2[C@@H]1O[C@@H]2COP(=O)(O)O[C@H]2[C@H]1O` [cAMP, cyclic adenosine monophosphate]?
chemotaxis indices and persistence toward the source [1]: strong chemotaxis indices and persistence; chemotaxis indices and persistence ([2]; AX2 cells expressing RBD-GFP, 100 nM cAMP, silica coverslip device with five ports, cells A-G tracked): good chemotaxis indices and persistence; cell migration toward gradient ports ([2]; cells expressing LimE-RFP, cover slip device with three 15 μm ports, upright microscope, 80-minute series): rapidly migrated towards and into the cAMP gradient cover slip ports

How did the “migration rates of myeloid cells” value (myeloid cells) turn out when “epidermal growth factor: growth factor added through the microfluidic coverslip to alter myeloid cell migration” was run?
Its value is “migration rates altered”.
